Measured values as given in ChEMBL document CHEMBL4507256 (2021).

What was measured:
Rattus norvegicus = organism: Rattus norvegicus; settings: Compound concentration 10.0 uM
[1] = target: Tyrosine-protein kinase Lck (Homo sapiens) (UniProt P06239); settings: Compound concentration 1000.0 nM
[2] = target: Phosphatidylinositol 4,5-bisphosphate 3-kinase catalytic subunit delta isoform (Homo sapiens) (UniProt O00329); settings: Compound concentration 1000.0 nM
[3] = tested on: Tyrosine-protein kinase ABL1 (Homo sapiens), P00519 [T315I]; settings: Compound concentration 1000.0 nM
[4] = target: Casein kinase II subunit alpha (Homo sapiens) (UniProt P68400); settings: Compound concentration 1000.0 nM
Chain of Casein kinase II subunit alpha (Homo sapiens) (P68400 whole entry, looked up): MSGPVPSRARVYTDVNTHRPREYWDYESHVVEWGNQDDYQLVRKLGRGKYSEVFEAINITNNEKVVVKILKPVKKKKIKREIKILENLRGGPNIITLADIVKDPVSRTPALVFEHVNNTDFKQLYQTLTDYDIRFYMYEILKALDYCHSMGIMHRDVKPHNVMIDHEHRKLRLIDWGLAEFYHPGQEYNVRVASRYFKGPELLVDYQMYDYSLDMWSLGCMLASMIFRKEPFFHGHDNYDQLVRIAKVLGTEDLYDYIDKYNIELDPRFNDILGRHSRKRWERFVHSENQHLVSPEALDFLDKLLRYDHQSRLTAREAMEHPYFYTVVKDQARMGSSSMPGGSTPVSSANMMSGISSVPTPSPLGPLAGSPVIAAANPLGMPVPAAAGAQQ

[5] = target: Leucine-rich repeat serine/threonine-protein kinase 2 (Homo sapiens) (UniProt Q5S007); settings: Compound concentration 1000.0 nM
[6] = target: Cyclin-dependent kinase 2 homolog (Plasmodium falciparum (isolate 3D7)) (UniProt P61075); settings: Compound concentration 1000.0 nM
[7] = target: Phosphorylase b kinase regulatory subunit alpha, liver isoform (Homo sapiens) (UniProt P46019); settings: Compound concentration 1000.0 nM
[8] = target: Mitogen-activated protein kinase kinase kinase 7 (Homo sapiens) (UniProt O43318); settings: Compound concentration 1000.0 nM
[9] = target: Cyclin-dependent kinase 4 (Homo sapiens) (UniProt P11802); settings: Compound concentration 1000.0 nM
Chain of Cyclin-dependent kinase 4 (Homo sapiens) (P11802 whole entry): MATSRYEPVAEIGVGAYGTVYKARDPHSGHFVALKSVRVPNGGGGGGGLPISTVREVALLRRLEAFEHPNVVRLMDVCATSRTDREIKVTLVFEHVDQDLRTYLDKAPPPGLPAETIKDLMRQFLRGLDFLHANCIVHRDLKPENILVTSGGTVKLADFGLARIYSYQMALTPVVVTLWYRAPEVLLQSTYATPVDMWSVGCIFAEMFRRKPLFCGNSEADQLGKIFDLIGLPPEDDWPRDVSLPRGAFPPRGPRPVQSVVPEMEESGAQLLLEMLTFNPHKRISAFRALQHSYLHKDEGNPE

[10] = target: SNF-related serine/threonine-protein kinase (Homo sapiens) (UniProt Q9NRH2); settings: Compound concentration 1000.0 nM
[11] = tested on: Epidermal growth factor receptor (Homo sapiens), P00533 [T790M]; settings: Compound concentration 1000.0 nM
[12] = target: Epithelial discoidin domain-containing receptor 1 (Homo sapiens) (UniProt Q08345); settings: Compound concentration 1000.0 nM
Chain of Epithelial discoidin domain-containing receptor 1 (Homo sapiens) (Q08345 whole entry, the tested form may be a part): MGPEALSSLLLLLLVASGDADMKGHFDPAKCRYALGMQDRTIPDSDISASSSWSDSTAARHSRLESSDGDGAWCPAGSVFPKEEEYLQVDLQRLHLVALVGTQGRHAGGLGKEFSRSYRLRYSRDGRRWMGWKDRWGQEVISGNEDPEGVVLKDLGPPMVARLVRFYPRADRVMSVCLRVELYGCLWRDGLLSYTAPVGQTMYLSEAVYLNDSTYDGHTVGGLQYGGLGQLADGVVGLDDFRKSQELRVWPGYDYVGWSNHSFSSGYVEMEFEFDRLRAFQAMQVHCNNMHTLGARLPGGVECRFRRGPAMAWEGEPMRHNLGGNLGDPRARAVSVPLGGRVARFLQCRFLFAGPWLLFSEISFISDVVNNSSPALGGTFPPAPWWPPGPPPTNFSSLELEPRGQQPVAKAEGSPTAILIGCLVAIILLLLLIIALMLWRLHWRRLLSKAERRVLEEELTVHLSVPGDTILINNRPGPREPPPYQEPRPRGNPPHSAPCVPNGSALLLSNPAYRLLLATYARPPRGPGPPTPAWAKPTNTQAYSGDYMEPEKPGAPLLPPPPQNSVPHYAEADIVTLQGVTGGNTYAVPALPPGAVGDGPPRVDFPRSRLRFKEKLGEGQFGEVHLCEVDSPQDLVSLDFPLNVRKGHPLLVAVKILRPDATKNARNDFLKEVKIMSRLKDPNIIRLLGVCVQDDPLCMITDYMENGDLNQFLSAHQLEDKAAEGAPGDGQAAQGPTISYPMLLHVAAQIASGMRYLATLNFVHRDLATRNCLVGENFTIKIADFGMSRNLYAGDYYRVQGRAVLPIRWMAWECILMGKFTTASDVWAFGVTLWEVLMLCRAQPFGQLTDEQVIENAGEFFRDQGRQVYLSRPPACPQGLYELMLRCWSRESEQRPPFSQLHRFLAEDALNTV

[13] = tested on: Epidermal growth factor receptor (Homo sapiens), P00533 [UNDEFINED MUTATION]; settings: Compound concentration 1000.0 nM
[14] = tested on: Mast/stem cell growth factor receptor Kit (Homo sapiens), P10721 [V559D]; settings: Compound concentration 1000.0 nM
Chain of Mast/stem cell growth factor receptor Kit (Homo sapiens), P10721 [V559D] (P10721 whole entry V559D): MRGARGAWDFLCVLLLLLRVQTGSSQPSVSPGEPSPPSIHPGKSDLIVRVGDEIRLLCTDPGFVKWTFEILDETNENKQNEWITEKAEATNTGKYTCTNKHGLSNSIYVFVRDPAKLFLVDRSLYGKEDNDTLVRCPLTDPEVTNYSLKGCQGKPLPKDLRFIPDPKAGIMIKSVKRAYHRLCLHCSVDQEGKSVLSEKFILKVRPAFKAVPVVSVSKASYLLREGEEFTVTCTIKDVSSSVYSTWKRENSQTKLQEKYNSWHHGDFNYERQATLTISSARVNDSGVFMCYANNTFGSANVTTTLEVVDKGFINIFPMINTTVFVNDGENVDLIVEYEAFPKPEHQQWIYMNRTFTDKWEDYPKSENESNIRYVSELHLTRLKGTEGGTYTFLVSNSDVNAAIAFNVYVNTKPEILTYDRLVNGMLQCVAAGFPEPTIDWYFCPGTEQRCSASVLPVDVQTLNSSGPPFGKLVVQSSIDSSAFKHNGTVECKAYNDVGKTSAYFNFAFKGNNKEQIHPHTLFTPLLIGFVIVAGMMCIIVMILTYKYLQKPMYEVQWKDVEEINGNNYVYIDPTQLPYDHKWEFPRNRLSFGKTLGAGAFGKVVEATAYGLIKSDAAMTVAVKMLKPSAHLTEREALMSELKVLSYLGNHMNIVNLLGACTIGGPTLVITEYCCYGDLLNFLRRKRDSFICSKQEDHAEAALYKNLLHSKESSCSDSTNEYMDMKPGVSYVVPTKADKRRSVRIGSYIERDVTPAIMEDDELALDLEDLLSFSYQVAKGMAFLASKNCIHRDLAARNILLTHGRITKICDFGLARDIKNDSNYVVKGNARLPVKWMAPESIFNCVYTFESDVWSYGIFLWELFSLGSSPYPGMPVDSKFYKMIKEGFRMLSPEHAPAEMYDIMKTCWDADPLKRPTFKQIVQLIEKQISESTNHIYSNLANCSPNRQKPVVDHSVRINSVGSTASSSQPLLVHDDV

[15] = target: Serine/threonine-protein kinase Chk2 (Homo sapiens) (UniProt O96017); settings: Compound concentration 1000.0 nM
[16] = target: Serine/threonine-protein kinase WNK3 (Homo sapiens) (UniProt Q9BYP7); settings: Compound concentration 1000.0 nM
[17] = target: Cyclin-dependent kinase 9 (Homo sapiens) (UniProt P50750); settings: Compound concentration 1000.0 nM
[18] = target: Serine/threonine-protein kinase 35 (Homo sapiens) (UniProt Q8TDR2); settings: Compound concentration 1000.0 nM
[19] = tested on: Serine/threonine-protein kinase B-raf (Homo sapiens), P15056 [V600E]; settings: Compound concentration 1000.0 nM
[20] = target: Non-receptor tyrosine-protein kinase TYK2 (Homo sapiens) (UniProt P29597); settings: Compound concentration 1000.0 nM
Chain of Non-receptor tyrosine-protein kinase TYK2 (Homo sapiens) (P29597 whole entry): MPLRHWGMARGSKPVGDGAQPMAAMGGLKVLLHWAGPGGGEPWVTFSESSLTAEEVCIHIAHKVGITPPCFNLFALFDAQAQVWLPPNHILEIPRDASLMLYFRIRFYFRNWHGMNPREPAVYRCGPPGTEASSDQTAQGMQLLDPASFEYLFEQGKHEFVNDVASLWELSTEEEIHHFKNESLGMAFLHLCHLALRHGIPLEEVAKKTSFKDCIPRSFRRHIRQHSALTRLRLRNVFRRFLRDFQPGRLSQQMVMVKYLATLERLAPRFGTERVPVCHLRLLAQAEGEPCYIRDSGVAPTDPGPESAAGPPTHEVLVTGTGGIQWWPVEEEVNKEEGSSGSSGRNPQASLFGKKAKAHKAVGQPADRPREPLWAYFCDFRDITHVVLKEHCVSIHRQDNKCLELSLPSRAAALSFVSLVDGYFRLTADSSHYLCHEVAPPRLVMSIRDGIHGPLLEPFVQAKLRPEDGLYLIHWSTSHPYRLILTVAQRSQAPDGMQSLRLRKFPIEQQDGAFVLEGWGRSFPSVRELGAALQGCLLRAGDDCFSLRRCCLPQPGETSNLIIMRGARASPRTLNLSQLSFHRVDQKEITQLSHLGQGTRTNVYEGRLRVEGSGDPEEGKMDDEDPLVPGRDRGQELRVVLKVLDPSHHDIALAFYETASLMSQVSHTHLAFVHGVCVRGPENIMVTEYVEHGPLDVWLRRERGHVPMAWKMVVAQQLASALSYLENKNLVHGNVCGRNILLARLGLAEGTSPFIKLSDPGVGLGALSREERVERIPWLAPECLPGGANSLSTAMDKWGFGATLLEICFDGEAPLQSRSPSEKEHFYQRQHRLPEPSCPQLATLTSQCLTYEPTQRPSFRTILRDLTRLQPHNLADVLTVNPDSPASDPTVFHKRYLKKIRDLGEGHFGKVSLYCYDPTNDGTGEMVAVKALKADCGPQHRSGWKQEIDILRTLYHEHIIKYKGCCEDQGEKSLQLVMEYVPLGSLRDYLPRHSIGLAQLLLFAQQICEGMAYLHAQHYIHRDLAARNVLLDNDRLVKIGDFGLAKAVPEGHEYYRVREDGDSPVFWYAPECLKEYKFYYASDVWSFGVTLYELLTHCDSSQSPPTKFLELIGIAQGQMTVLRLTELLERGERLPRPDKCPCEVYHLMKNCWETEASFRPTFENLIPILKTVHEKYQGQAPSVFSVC

[21] = target: Cyclin-dependent kinase 18 (Homo sapiens) (UniProt Q07002); settings: Compound concentration 1000.0 nM
[22] = tested on: Epidermal growth factor receptor (Homo sapiens), P00533 [UNDEFINED MUTATION]; settings: Compound concentration 1000.0 nM; remark: listed apart in the source
[23] = target: Interferon-induced, double-stranded RNA-activated protein kinase (Homo sapiens) (UniProt P19525); settings: Compound concentration 1000.0 nM
[24] = target: Ephrin type-A receptor 1 (Homo sapiens) (UniProt P21709); settings: Compound concentration 1000.0 nM
[25] = target: Microtubule-associated serine/threonine-protein kinase 1 (Homo sapiens) (UniProt Q9Y2H9); settings: Compound concentration 1000.0 nM
[26] = target: Activin receptor type-1 (Homo sapiens) (UniProt Q04771); settings: Compound concentration 1000.0 nM
[27] = tested on: Phosphatidylinositol 4,5-bisphosphate 3-kinase catalytic subunit alpha isoform (Homo sapiens), P42336 [M1043I]; settings: Compound concentration 1000.0 nM
[28] = target: Ribosomal protein S6 kinase alpha-2 (Homo sapiens) (UniProt Q15349); settings: Compound concentration 1000.0 nM
[29] = target: T1, 5-hydroxytryptamine receptor 2C (Homo sapiens) (UniProt P28335); settings: Compound concentration 10.0 uM
T1 sequence (whole entry): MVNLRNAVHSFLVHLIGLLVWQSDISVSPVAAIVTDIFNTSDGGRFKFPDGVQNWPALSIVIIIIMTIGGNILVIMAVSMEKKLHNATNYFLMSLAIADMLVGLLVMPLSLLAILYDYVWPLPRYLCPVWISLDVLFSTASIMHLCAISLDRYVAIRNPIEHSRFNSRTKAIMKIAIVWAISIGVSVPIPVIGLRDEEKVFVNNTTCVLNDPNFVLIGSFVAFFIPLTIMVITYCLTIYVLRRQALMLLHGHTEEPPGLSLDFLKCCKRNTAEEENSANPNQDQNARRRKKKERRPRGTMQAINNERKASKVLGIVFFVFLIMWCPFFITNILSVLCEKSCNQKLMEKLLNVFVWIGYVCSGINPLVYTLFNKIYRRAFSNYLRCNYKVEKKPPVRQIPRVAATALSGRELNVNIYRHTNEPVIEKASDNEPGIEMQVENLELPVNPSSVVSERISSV

[30] = target: Ephrin type-A receptor 8 (Homo sapiens) (UniProt P29322); settings: Compound concentration 1000.0 nM
[31] = target: Sigma non-opioid intracellular receptor 1 (Homo sapiens, UniProt Q99720); settings: Compound concentration 10.0 uM
Chain of Sigma non-opioid intracellular receptor 1 (Q99720 whole entry): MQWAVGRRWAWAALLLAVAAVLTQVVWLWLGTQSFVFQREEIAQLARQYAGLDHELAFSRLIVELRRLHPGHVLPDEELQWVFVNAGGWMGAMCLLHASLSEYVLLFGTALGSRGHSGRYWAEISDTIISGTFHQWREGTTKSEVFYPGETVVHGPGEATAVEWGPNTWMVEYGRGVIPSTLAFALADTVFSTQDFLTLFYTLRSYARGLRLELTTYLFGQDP

[32] = target: Ribosomal protein S6 kinase alpha-6 (Homo sapiens) (UniProt Q9UK32); settings: Compound concentration 1000.0 nM
[33] = target: Serine/threonine-protein kinase Nek10 (Homo sapiens) (UniProt Q6ZWH5); settings: Compound concentration 1000.0 nM
[34] = target: Serine/threonine-protein kinase PAK 3 (Homo sapiens) (UniProt O75914); settings: Compound concentration 1000.0 nM
Chain of Serine/threonine-protein kinase PAK 3 (Homo sapiens) (O75914 whole entry, looked up): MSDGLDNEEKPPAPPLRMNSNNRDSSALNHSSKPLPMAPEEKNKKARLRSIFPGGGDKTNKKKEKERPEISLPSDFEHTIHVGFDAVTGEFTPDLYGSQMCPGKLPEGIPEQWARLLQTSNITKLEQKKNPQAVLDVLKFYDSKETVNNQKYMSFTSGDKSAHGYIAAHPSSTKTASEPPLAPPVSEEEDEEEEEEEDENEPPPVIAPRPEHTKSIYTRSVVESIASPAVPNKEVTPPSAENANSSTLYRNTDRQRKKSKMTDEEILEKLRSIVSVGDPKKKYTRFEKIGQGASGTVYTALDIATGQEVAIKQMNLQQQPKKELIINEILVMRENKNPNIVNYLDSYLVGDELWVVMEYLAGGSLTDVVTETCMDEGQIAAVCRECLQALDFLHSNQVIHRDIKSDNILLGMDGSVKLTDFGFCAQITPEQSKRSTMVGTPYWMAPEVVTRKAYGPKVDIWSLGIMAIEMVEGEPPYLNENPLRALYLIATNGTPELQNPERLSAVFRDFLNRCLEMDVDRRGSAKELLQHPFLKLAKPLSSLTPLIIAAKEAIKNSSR

[35] = target: Cyclin-dependent kinase 16 (Homo sapiens) (UniProt Q00536); settings: Compound concentration 1000.0 nM
[36] = target: Receptor-interacting serine/threonine-protein kinase 1 (Homo sapiens) (UniProt Q13546); settings: Compound concentration 1000.0 nM
[37] = target: Tyrosine-protein kinase TXK (Homo sapiens) (UniProt P42681); settings: Compound concentration 1000.0 nM
[38] = target: Death-associated protein kinase 3 (Homo sapiens) (UniProt O43293); settings: Compound concentration 1000.0 nM
Chain of Death-associated protein kinase 3 (Homo sapiens) (O43293 whole entry, looked up): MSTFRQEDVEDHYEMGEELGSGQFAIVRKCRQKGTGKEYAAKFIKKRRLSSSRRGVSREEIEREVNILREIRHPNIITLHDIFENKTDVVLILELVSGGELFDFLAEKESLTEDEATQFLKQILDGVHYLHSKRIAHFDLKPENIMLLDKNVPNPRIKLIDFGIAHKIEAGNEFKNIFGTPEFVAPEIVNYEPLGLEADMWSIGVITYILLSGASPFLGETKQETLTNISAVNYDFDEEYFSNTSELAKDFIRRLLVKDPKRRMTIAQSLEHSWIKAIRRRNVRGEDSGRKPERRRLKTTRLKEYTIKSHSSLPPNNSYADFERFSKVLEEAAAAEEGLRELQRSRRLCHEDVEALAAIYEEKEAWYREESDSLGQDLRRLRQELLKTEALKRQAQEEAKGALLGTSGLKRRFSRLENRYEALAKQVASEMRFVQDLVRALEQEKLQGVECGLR

SMILES: CCC(=N\O)/C(C)=C/c1ccc(F)cc1 [A-079]
- inhibition (Rattus norvegicus): 11.9%
- residual activity [1]: 82%
- residual activity [2]: 72%
- residual activity [3]: 87%
- residual activity [4]: 74%
- residual activity [5]: 90%
- residual activity [6]: 84%
- residual activity [7]: 90%
- residual activity [8]: 81%
- residual activity [9]: 100%
- residual activity [10]: 100%
- residual activity [11]: 100%
- residual activity [12]: 89%
- residual activity [13]: 59%
- residual activity [14]: 100%
- residual activity [15]: 85%
- residual activity [16]: 75%
- residual activity [17]: 93%
- residual activity [18]: 100%
- residual activity [19]: 77%
- residual activity [20]: 73%
- residual activity [21]: 89%
- residual activity [22]: 61%
- residual activity [23]: 100%
- residual activity [24]: 82%
- residual activity [25]: 71%
- residual activity [26]: 80%
- residual activity [27]: 88%
- residual activity [28]: 85%
- inhibition [29]: 32.7%
- residual activity [30]: 100%
- inhibition [31]: 84%
- residual activity [32]: 81%
- residual activity [33]: 95%
- residual activity [34]: 89%
- residual activity [35]: 86%
- residual activity [36]: 82%
- residual activity [37]: 81%
- residual activity [38]: 87%

SMILES: CCC(=N\O)/C(C)=C/c1ccc(F)c(C)c1 [A-226]
- inhibition (Rattus norvegicus): 50.6%
- residual activity [1]: 87%
- residual activity [2]: 100%
- residual activity [3]: 88%
- residual activity [4]: 100%
- residual activity [5]: 100%
- residual activity [6]: 100%
- residual activity [7]: 100%
- residual activity [8]: 99%
- residual activity [9]: 100%
- residual activity [10]: 100%
- residual activity [11]: 100%
- residual activity [12]: 91%
- residual activity [13]: 71%
- residual activity [14]: 100%
- residual activity [15]: 90%
- residual activity [16]: 100%
- residual activity [17]: 96%
- residual activity [18]: 100%
- residual activity [19]: 100%
- residual activity [20]: 100%
- residual activity [21]: 87%
- residual activity [22]: 69%
- residual activity [23]: 100%
- residual activity [24]: 83%
- residual activity [25]: 100%
- residual activity [26]: 100%
- residual activity [27]: 71%
- residual activity [28]: 100%
- inhibition [29]: 27%
- residual activity [30]: 99%
- inhibition [31]: 86.8%
- residual activity [32]: 100%
- residual activity [33]: 100%
- residual activity [34]: 63%
- residual activity [35]: 100%
- residual activity [36]: 100%
- residual activity [37]: 73%
- residual activity [38]: 98%
